Converted amounts (≈) assume the structure as drawn. Structures can show the parent of a compound that is named as a salt. Where two headings read alike, the source gives them in different places.
Key:
[1] = Rotating membrane diffusion cell experiments (permeation through PDMS membrane); details: for LAG TIME (PRED.): predicted from Crank's method (Equation 16); for LAG TIME (EXP.): time to steady state transport across the membrane, linear regression of concentration versus time
[2] = Partition coefficient measurements in PDMS membranes; assay type: physicochemical; details: intrinsic non-ionized partition coefficient, N = 5
Description: For each drug, five membranes were prepared. Each membrane was prepared with 10 parts base to 1 part curing agent and cured at 20° C. for at least 72 hours. Once cured, the membranes were sectioned using a template and razor blade. The dimensions of the perimeter and thickness were measured using a caliper to determine the volume of membrane. After determining membrane density, subsequent volume measurements were made using the density relationship. Stock solution was distributed to 5 sample vials with 1 membrane-free vial to serve as a control. The time zero point was measured from the blank vial and time points and 1 mL samples were taken at 12 and 24 hours. The collected samples were assayed in duplicate by HPLC. Bulk transport properties of PDMS were measured to evaluate PDMS fitness for the mimicking human oral absorption. The partition coefficient was calculated according to Equation 4. K=Partition coefficient Cmem*=Equilibrium concentration of drug in membrane Caq*=Equilibrium concentration of drug in the aqueous media

[3] = not told
physchem = details: pH 2, aqueous buffer, thermodynamic from solid
Description: Five 1.5 mL centrifuge tubes were labeled and prepared with 1 mL of the appropriate non-ionizing buffer (see Table 5). Solid drug in powder form was added to each individual vial and then vortexed. The addition of drug and vortex mixing was repeated until there was visible undissolved drug powder present. The centrifuge tubes were then put into a hot box where they remained at an aqueous temperature of 37° C. (set point 43° C.). The internal temperature was determined by measuring the temperature of a “blank” tube in the rack. Once the internal temperature reached 37° C., the tubes were held at 37° C. for 48 hours. The tubes were removed from the hot box and centrifuged at 17,000G for 3 hours. The tubes cooled below 37° C. during the centrifugation so the tubes were re-inserted into the hot box and allowed to reach 37° C. over the course of 1 hour. Supernatant was then extracted directly from the tube in the hot box without disturbing the pellet. The supernatant was appropriately diluted for HPLC analysis.
In each permeation experiment, the donor-phase-containing drug was at a non-ionizing pH if the drug was ionizable and the receiver phase was at a completely ionizing (>99%) pH. […] Progesterone solubility was determined twice, the second time as an analytical check.

[4] = UTLAM diffusion cell dissolution/absorption experiment; assay type: in vitro ADME; details: 57 micron PDMS UTLAM, donor 50 mM phosphate pH 6.5, receiver pH 8.0, 37° C., 50 rpm, 162 mg dose
Description: According to the SEM freeze-fracture-determined thickness based on the terminal rotational speed and mass fraction of PDMS, the membranes tested in the following experiments were 57 microns thick. 130 mL of 50 mM phosphate buffer pH 6.5 was degas sed and used as the donor phase, while 100 mL of 50 mM phosphate buffer pH 8.0 was degas sed and used as the receiver phase. The rationale behind this is that PDMS has poor ability to transport ions (a […] pH-partition relationship) and the more ionized the drug is, the less driving force the drug will provide for reverse transport out of the receiver phase. […] Ultimately, this leads to a […] transport rate of ibuprofen returning to the donor compartment. […] It is understood that the measured absorption rate is […] due the additional partitioning kinetics introduced by the resin that forms the UTLAM device. […] Physiologically, it is understood that the bicarbonate buffer bulk pH and buffer capacity are lower in the duodenum and jejunum than that of the USP 2 dissolution test. […]
The PDMS UTLAM is floated in deionized water and in about two hours the PVA is dissolved enough to tease the PDMS UTLAM to the surface of the water. […] Equivalent stirring rates could be calculated for the USP 2 paddle using CFD measurements made in COMSOL. […]

[5] = Equilibrium partition coefficient of ibuprofen into VeroClear resin spheres; assay type: physicochemical; details: pH 2 in VeroClear, 10 mm diameter spheres
[6] = assay type: physicochemical
Description: This experiment was conducted in a manner similar to the experiment described in “Partition Coefficient Measurements”, above. […] Four different mass % of curing agents (4.9%, 9.1%, 16%, and 25%) were examined at two different pH conditions (2.00 HCl 13 mM & 6.50 phosphate 50 mM). The Log DPDMS was measured as a function of pH at pH 2.00, 5.00, 6.45, and 12.00 using 13 mM HCl, 50 mM acetate, 50 mM phosphate, and 39 mM NaOH buffers, respectively, at RT (FIG. 5C).

[7] = Mass increase of PDMS membranes after equilibrium partitioning with ibuprofen; assay type: physicochemical
Description: Ibuprofen was chosen as a model drug because of its high lipophilicity and the ability to measure the difference in mass of drug in the membrane before and after the partitioning experiment. There was no statistical difference in the positronium lifetimes, but there was a 1.76 mg±0.12 mg (n=7) mass increase in 25% by mass curing agent PDMS membranes, and a 2.90 mg±0.38 mg (n=6) mass increase in […] by mass curing agent PDMS membranes.

[8] = literature values (refs 6, 41); cited from earlier work
[9] = average PDMS KD divided by 10^LogK for PDMS

Compound	PDMS LOGK [2]	AVG. PDMS (K*D) [3]	LAG TIME (PRED.) [3]	PARTITION INDEPENDENT DIFF. COEFF (K*D)/10^LOGK^PDMS [1, 9]	LAG TIME (PRED.) [1]	LAG TIME (EXP.) [1]	further results
O=C(O)c1ccccc1 [BENZOIC ACID, Benzoic Acid]	0.10	–	–	–	238 min	25 min	–
Cn1c(=O)c2c(ncn2C)n(C)c1=O [CAFFEINE, Caffeine]	–	6.02 × 10^−10 CM^2 S^−1	571 min	–	–	–	PARTITION I[…]. COEFF (K*D)/10^LOGK^PDMS [1, 9]: 1.70 × 10^−8 CM^2 S^−1
CC(C(=O)O)c1cccc(C(=O)c2ccccc2)c1 (stereo not drawn) [KETOPROFEN, Ketoprofen]	0.56	–	–	2.58 × 10^−8 CM^2 S^−1	482 min	232 min	AVG. PDMS (K*D) ([1]; non-ionized drug, donor/receiver buffer I/III as printed, 37° C., 150 rpm): 9.46 × 10^−8 CM^2 S^−1; pKa [8]: 3.89

The next lines start with results.

PDMS LOGK [2]	AVG. PDMS (K*D) [3]	LAG TIME (PRED.) [3]	PARTITION INDEPENDENT DIFF. COEFF (K*D)/10^LOGK^PDMS [1, 9]	Compound	LAG TIME (PRED.) [1]	LAG TIME (EXP.) [1]	further results
1.79	1.83 × 10^−5 CM^2 S^−1	158 min	2.99 × 10^−7 CM^2 S^−1	CC(C)Cc1ccc(C(C)C(=O)O)cc1 (stereo not drawn) [IBUPROFEN, Ibuprofen]	–	–	solubility thermodynamic at 48 h (physchem; NON-IONIZED SOLUBILITY): 60 mg/mL (≈ 291 mM); absorption rate (net flux) [4]: within the same order of magnitude of ibuprofen absorption in human beings; K (equilibrium partition coefficient) in VeroClear [5]: 86; MEASURED PDMS LOGPU ± SE [6]: 1.81; PI EQ. 6 ([6]; calculated to fit equation 6 using data at pH 11.81 and fu~0): 0.008; MEASURED PDMS PU ± SE ([6]; intrinsic non-ionized partition coefficient, N = 15): 65; K (partition coefficient) in PDMS ([6]; pH 2): 65; MEASURED PDMS LOGPI ± SE ([6]; pH 11.81): −0.286; mass increase of PDMS membrane after equilibrium partitioning ([7]; 3.2% by mass curing agent PDMS membranes, n=6): 2.90 mg; mass increase of PDMS membrane after equilibrium partitioning ([7]; 25% by mass curing agent PDMS membranes, n=7): 1.76 mg
0.68	–	–	–	COCCc1ccc(OCC(O)CNC(C)C)cc1 (stereo not drawn) [METOPROLOL TARTRATE, Metoprolol Tartrate]	–	–	–
2.03	1.14 × 10^−5 CM^2 S^−1	158 min	1.07 × 10^−7 CM^2 S^−1	CC(=O)[C@H]1CC[C@H]2[C@@H]3CCC4=CC(=O)CC[C@]4(C)[C@H]3CC[C@]12C [PROGESTERONE, Progesterone]	–	–	solubility thermodynamic at 48 h (physchem; 13 mM hydrochloric acid buffer, NON-IONIZED SOLUBILITY (ANALY. COMP.), second determination as analytical check with different dilution, pH 2.00 13 mM hydrochloric acid buffer at 37° C.): 20.9 mg/mL (≈ 66.5 mM); solubility thermodynamic at 48 h (physchem; 13 mM hydrochloric acid buffer, NON-IONIZED SOLUBILITY, I = pH 2.00 13 mM hydrochloric acid buffer at 37° C.): 21.3 mg/mL (≈ 67.7 mM)
